Measured values published in patent US20240116985A1, “STAPLED PEPTIDES AND METHODS THEREOF” (priority 2020, published 2024).

assay: CHI Log D procedure; format: physicochemical; conditions: pH 7.4

SMILES	CHI Log D
CC(=O)N[C@@H](Cc1ccccc1)C(=O)N[C@@H](CC(=O)O)C(=O)N[C@@H](C)C(=O)N[C@]1(C)CCCCCCC=CCOC(=O)N2CC[C@@](C(=O)N[C@@H](Cc3ccccc3)C(=O)N[C@@H](Cc3c[nH]c4ccccc34)C(=O)N[C@@H](CCC(N)=O)C(N)=O)(C2)NC(=O)[C@H](C(C)C)NC(=O)[C@H](Cc2ccc(C(N)=O)cc2)NC(=O)[C@H](C)NC(=O)[C@H](C)NC(=O)[C@H](CC(=O)O)NC(=O)[C@H](CC(=O)O)NC1=O [I-92, Ac-Phe-Asp-Ala-R8-Asp-Asp-Ala-Ala-4CBMF-Val-PyrS-Phe-Trp-Gln-NH2]	1.199
CC(=O)N[C@@H](Cc1ccccc1)C(=O)N[C@@H](CC(=O)O)C(=O)N[C@@H](C)C(=O)N[C@]1(C)CCCCCCC=CCOC(=O)N2CC[C@@](C(=O)N[C@@H](Cc3ccccc3)C(=O)N[C@@H](Cc3c[nH]c4ccccc34)C(=O)N[C@@H](CCC(N)=O)C(N)=O)(C2)NC(=O)[C@H](C(C)C)NC(=O)[C@H](Cc2ccccc2)NC(=O)[C@H](C)NC(=O)[C@H](C)NC(=O)[C@H](Cc2ccccc2)NC(=O)[C@H](CC(=O)O)NC1=O [I-100, Ac-Phe-Asp-Ala-R8-Asp-Phe-Ala-Ala-Phe-Val-PyrS-Phe-Trp-Gln-NH2]	1.993
CC(=O)N[C@@H](Cc1ccccc1)C(=O)N[C@@H](CC(=O)O)C(=O)N[C@@H](C)C(=O)N[C@]1(C)CCCCCCC=CCOC(=O)N2CC[C@@](C(=O)N[C@@H](Cc3ccccc3)C(=O)N[C@@H](Cc3c[nH]c4ccccc34)C(=O)N[C@@H](CCC(N)=O)C(N)=O)(C2)NC(=O)[C@H](C(C)C)NC(=O)[C@H](Cc2ccccc2)NC(=O)[C@H](C)NC(=O)[C@H](C)NC(=O)[C@H](Cc2ccc3ccccc3c2)NC(=O)[C@H](CC(=O)O)NC1=O [I-115, Ac-Phe-Asp-Ala-R8-Asp-2NapA-Ala-Ala-Phe-Val-PyrS-Phe-Trp-Gln-NH2]	2.145
CC(=O)N[C@@H](Cc1ccccc1)C(=O)N[C@@H](CC(=O)O)C(=O)N[C@@H](C)C(=O)N[C@]1(C)CCCCCCC=CCOC(=O)N2CC[C@@](C(=O)N[C@@H](Cc3ccccc3)C(=O)N[C@@H](Cc3c[nH]c4ccccc34)C(=O)N[C@@H](CCC(N)=O)C(N)=O)(C2)NC(=O)[C@H](C(C)C)NC(=O)[C@H](CCc2ccccc2)NC(=O)[C@H](C)NC(=O)[C@H](C)NC(=O)[C@H](CC(=O)O)NC(=O)[C@H](CC(=O)O)NC1=O [I-118, Ac-Phe-Asp-Ala-R8-Asp-Asp-Ala-Ala-hPhe-Val-PyrS-Phe-Trp-Gln-NH2]	1.545
CC(=O)N[C@@H](Cc1ccccc1)C(=O)N[C@@H](CC(=O)O)C(=O)N[C@@H](C)C(=O)N[C@]1(C)CCCCCCC=CCOC(=O)N2CC[C@@](C(=O)N[C@@H](Cc3ccccc3)C(=O)N[C@@H](Cc3c[nH]c4ccccc34)C(=O)N[C@@H](CCC(N)=O)C(N)=O)(C2)NC(=O)[C@H](C(C)C)NC(=O)[C@H](CCc2ccc(O)cc2)NC(=O)[C@H](C)NC(=O)[C@H](C)NC(=O)[C@H](CC(=O)O)NC(=O)[C@H](CC(=O)O)NC1=O [I-120, Ac-Phe-Asp-Ala-R8-Asp-Asp-Ala-Ala-hTyr-Val-PyrS-Phe-Trp-Gln-NH2]	1.243
CC(=O)N[C@@H](Cc1ccccc1)C(=O)N[C@@H](CC(=O)O)C(=O)N[C@@H](C)C(=O)N[C@]1(C)CCCCCCC=CCOC(=O)N2CC[C@@](C(=O)N[C@@H](CC(=O)O)C(=O)N[C@@H](Cc3c[nH]c4ccccc34)C(=O)N[C@@H](CCC(N)=O)C(N)=O)(C2)NC(=O)[C@H](C(C)C)NC(=O)[C@H](Cc2ccccc2)NC(=O)[C@H](C)NC(=O)[C@H](C)NC(=O)[C@H](CC(=O)O)NC(=O)[C@H](CC(=O)O)NC1=O [I-121, Ac-Phe-Asp-Ala-R8-Asp-Asp-Ala-Ala-Phe-Val-PyrS-Asp-Trp-Gln-NH2]	0.825
CC(=O)N1CCC[C@]12CC=CCCCC1(CCCC=CCCCCCC[C@@](C)(C(=O)N[C@@H](Cc3ccccc3)C(=O)N[C@@](C)(Cc3c[nH]c4ccccc34)C(=O)N[C@@H](CCC(N)=O)C(N)=O)NC(=O)[C@H](C(C)C)NC(=O)[C@H](Cc3ccccc3)NC(=O)[C@H](C)NC(=O)[C@H](C)NC(=O)[C@H](CCC(=O)O)NC(=O)[C@H](CC(=O)O)NC1=O)NC(=O)[C@H](C)NC(=O)[C@H](CC(=O)O)NC2=O (stereo partly drawn) [I-137, Ac-PL3-Asp-Ala-B5-Asp-Glu-Ala-Ala-Phe-Val-S8-Phe-aMeW-Gln-NH2]	2.174
CC[C@H](C)[C@H](NC(=O)[C@H](CC(=O)O)NC(C)=O)C(=O)N[C@]1(C)CCN(C)C(=O)OCC=CCCCCC[C@@](C)(C(=O)N[C@@H](Cc2ccccc2)C(=O)N[C@@H](Cc2c[nH]c3ccccc23)C(=O)N[C@@H](Cc2c[nH]cn2)C(N)=O)NC(=O)[C@H](CCC(N)=O)NC(=O)[C@H](Cc2ccccc2)NC(=O)[C@H](C)NC(=O)[C@H](C)NC(=O)[C@H](CC(=O)O)NC(=O)[C@H](CC(=O)O)NC1=O [I-149, Ac-Asp-Ile-RdN-Asp-Asp-Ala-Ala-Phe-Gln-S7-Phe-Trp-His-NH2]	1.27
CC[C@H](C)[C@H](NC(=O)[C@H](CC(=O)O)NC(=O)[C@H](C)NC(C)=O)C(=O)N[C@]1(C)CCN(C)C(=O)OCC=CCCCCC[C@@](C)(C(=O)N[C@@H](Cc2ccccc2)C(=O)N[C@@H](Cc2c[nH]c3ccccc23)C(=O)N[C@@H](C)C(N)=O)NC(=O)[C@H](C)NC(=O)[C@H](Cc2ccccc2)NC(=O)[C@H](C)NC(=O)[C@H](C)NC(=O)[C@H](CCC(=O)O)NC(=O)[C@H](CC(=O)O)NC1=O [I-154, Ac-Ala-Asp-Ile-RdN-Asp-Glu-Ala-Ala-Phe-Ala-S7-Phe-Trp-Ala-NH2]	1.426
CC(=O)NC(C)(C)C(=O)N[C@@H](CC(=O)O)C(=O)N[C@@H](C)C(=O)N[C@]1(C)CCCCCCC=CCOC(=O)N2CC[C@@](C(=O)N[C@@H](Cc3ccccc3)C(=O)N[C@@H](Cc3c[nH]c4ccccc34)C(=O)N[C@@H](CCC(N)=O)C(N)=O)(C2)NC(=O)[C@H](C(C)C)NC(=O)[C@H](Cc2ccccc2)NC(=O)[C@H](C)NC(=O)[C@H](C)NC(=O)[C@H](CCC(=O)O)NC(=O)[C@H](CC(=O)O)NC1=O [I-157, Ac-Aib-Asp-Ala-R8-Asp-Glu-Ala-Ala-Phe-Val-PyrS-Phe-Trp-Gln-NH2]	1.202

same assay, conditions: pH 7.4, CHI Log D

SMILES	chromatographic logD
CC(=O)N[C@@H](Cc1ccccc1)C(=O)N[C@@H](CC(=O)O)C(=O)N[C@@H](C)C(=O)N[C@]1(C)CCCCCCC=CCOC(=O)N2CC[C@@](C(=O)N[C@@H](Cc3ccccc3)C(=O)N[C@@H](Cc3c[nH]c4ccccc34)C(=O)N[C@@H](CCC(N)=O)C(N)=O)(C2)NC(=O)[C@H](C(C)C)NC(=O)[C@H](Cc2cccc(F)c2)NC(=O)[C@H](C)NC(=O)[C@H](C)NC(=O)[C@H](CC(=O)O)NC(=O)[C@H](CC(=O)O)NC1=O [I-77, Ac-Phe-Asp-Ala-R8-Asp-Asp-Ala-Ala-3FF-Val-PyrS-Phe-Trp-Gln-NH2]	1.28
CC(=O)N[C@@H](Cc1ccccc1)C(=O)N[C@@H](CC(=O)O)C(=O)N[C@@H](C)C(=O)N[C@]1(C)CCCCCCC=CCOC(=O)N2CC[C@@](C(=O)N[C@@H](Cc3ccccc3)C(=O)N[C@@H](Cc3c[nH]c4ccccc34)C(=O)N[C@@H](CCC(N)=O)C(N)=O)(C2)NC(=O)[C@H](C(C)C)NC(=O)[C@H](Cc2ccccn2)NC(=O)[C@H](C)NC(=O)[C@H](C)NC(=O)[C@H](CC(=O)O)NC(=O)[C@H](CC(=O)O)NC1=O [I-86, Ac-Phe-Asp-Ala-R8-Asp-Asp-Ala-Ala-2PyrA-Val-PyrS-Phe-Trp-Gln-NH2]	1.24
CC(=O)N[C@@H](Cc1ccccc1)C(=O)N[C@@H](CC(=O)O)C(=O)N[C@@H](C)C(=O)N[C@]1(C)CCCCCCC=CCOC(=O)N2CC[C@@](C(=O)N[C@@H](Cc3cccc(C(N)=O)c3)C(=O)N[C@@H](Cc3c[nH]c4ccccc34)C(=O)N[C@@H](CCC(N)=O)C(N)=O)(C2)NC(=O)[C@H](C(C)C)NC(=O)[C@H](Cc2ccccc2)NC(=O)[C@H](C)NC(=O)[C@H](C)NC(=O)[C@H](CC(=O)O)NC(=O)[C@H](CC(=O)O)NC1=O [I-107, Ac-Phe-Asp-Ala-R8-Asp-Asp-Ala-Ala-Phe-Val-PyrS-3CBMF-Trp-Gln-NH2]	1
CC(=O)N[C@@H](Cc1ccccc1)C(=O)N[C@@H](CC(=O)O)C(=O)N[C@@H](C)C(=O)N[C@]1(C)CCCCCCC=CCOC(=O)N2CC[C@@](C(=O)N[C@@H](Cc3ccccc3)C(=O)N[C@@H](Cc3c[nH]c4ccccc34)C(=O)N[C@@H](CCC(N)=O)C(N)=O)(C2)NC(=O)[C@H](C(C)C)NC(=O)[C@H](Cc2ccccc2)NC(=O)[C@H](C)NC(=O)[C@H](C)NC(=O)[C@H](Cc2cccc3ccccc23)NC(=O)[C@H](CC(=O)O)NC1=O [I-114, Ac-Phe-Asp-Ala-R8-Asp-1NapA-Ala-Ala-Phe-Val-PyrS-Phe-Trp-Gln-NH2]	2.11
CC(=O)N1CCC[C@]12CC=CCCCC1(CCCC=CCCCCCC[C@@](C)(C(=O)N[C@@H](Cc3ccccc3)C(=O)N[C@@H](Cc3c[nH]c4ccccc34)C(N)=O)NC(=O)[C@H](C(C)C)NC(=O)[C@H](Cc3ccccc3)NC(=O)[C@H](C)NC(=O)[C@H](C)NC(=O)[C@H](CCC(=O)O)NC(=O)[C@H](CC(=O)O)NC1=O)NC(=O)[C@H](C)NC(=O)[C@H](CC(=O)O)NC2=O (stereo partly drawn) [I-128, Ac-PL3-Asp-Ala-B5-Asp-Glu-Ala-Ala-Phe-Val-S8-Phe-Trp-NH2]	2.22
CC(=O)N1CCC[C@]12CC=CCCCC1(CCCC=CCCCCCC[C@@](C)(C(=O)N[C@@H](Cc3ccccc3)C(=O)NC(Cc3cccc4cc(F)ccc34)C(=O)N[C@@H](CCC(N)=O)C(N)=O)NC(=O)[C@H](C(C)C)NC(=O)[C@H](Cc3ccccc3)NC(=O)[C@H](C)NC(=O)[C@H](C)NC(=O)[C@H](CCC(=O)O)NC(=O)[C@H](CC(=O)O)NC1=O)NC(=O)[C@H](C)NC(=O)[C@H](CC(=O)O)NC2=O (stereo partly drawn) [I-142, Ac-PL3-Asp-Ala-B5-Asp-Glu-Ala-Ala-Phe-Val-S8-Phe-6F1NapA-Gln-NH2]	2.18
CC(=O)N1CCC[C@]12CC=CCCCC1(CCCC=CCCCCCC[C@@](C)(C(=O)N[C@@H](Cc3ccccc3)C(=O)N[C@@H](Cc3ccc(-c4ccccc4)cc3)C(=O)N[C@@H](CCC(N)=O)C(N)=O)NC(=O)[C@H](C(C)C)NC(=O)[C@H](Cc3ccccc3)NC(=O)[C@H](C)NC(=O)[C@H](C)NC(=O)[C@H](CCC(=O)O)NC(=O)[C@H](CC(=O)O)NC1=O)NC(=O)[C@H](C)NC(=O)[C@H](CC(=O)O)NC2=O (stereo partly drawn) [I-145, Ac-PL3-Asp-Ala-B5-Asp-Glu-Ala-Ala-Phe-Val-S8-Phe-Bip-Gln-NH2]	2.28
